Data published in PubChem BioAssay AID624395 (The Scripps Research Institute Molecular Screening Center, 2012).
Active and inactive are the calls of the source. No rule for the calls is given here.

Tested on: cell-based VP16 transactivation luciferase luminescence
Test: VP16 transactivation luciferase reporter inhibitors, dose response, counter-screen for NR2E3 agonist project, cell-based, luminescence (AID 624395)

Row | SMILES | IC50
1 | CC(C)c1ccc(/C=C(\c2nc3ccccc3[nH]2)S(=O)(=O)c2ccccc2)cc1 | 13.2 µM (inactive)
2 | Cc1nc(NC(=O)c2c(-c3ccccc3Cl)noc2C)sc1C | > 39.8 µM (inactive)
3 | COc1ccc(S(=O)(=O)N2CCCCC2)cc1NC(=S)Nc1ccccc1 | > 39.8 µM (inactive)
4 | O=C(CN1C(=O)C(c2ccc(F)cc2)=NC12CCCC2)Nc1ccc(F)cc1 | 4.48 µM
5 | c1coc(CNc2ncnc3ccccc23)c1 | 4.45 µM
6 | CN(C)c1ncnc2c1ccn2C1OC(CO)C(O)C1O (centres undefined) | 0.53 µM
7 | Cc1ccc(NC(=S)/C(C#N)=C2/Nc3ccccc3S2)cc1 | 2.76 µM
8 | Cc1cnc(NC(=O)CCCc2nc3ccccc3s2)s1 | 5.07 µM
9 | Cc1ccccc1Cn1nnc(C(=O)Nc2cccc(C)c2C)c1N | 18 µM (inactive)
10 | Cc1ccsc1C(=O)OCC(=O)c1cc(C)n(CC2CCCO2)c1C (centres undefined) | 0.0525 µM
11 | CCC1(OC(=O)CN(C)C)C(=O)OCc2c1cc1n(c2=O)Cc2cc3c(N)cccc3nc2-1 (centres undefined) | 2.99 µM
12 | Cc1cc2sc3ccc(C#CC4(O)CCCCC4)cc3c(=O)c2cc1C | 0.00878 µM
13 | COc1ccc(-n2c(C)cc(C(=O)COC(=O)c3ccc(O)cc3O)c2C)cc1 | 4.48 µM
14 | COc1cccc2c1C(=O)c1c(O)c3c(c(O)c1C2=O)CC(O)(C(C)=O)CC3OC1CC(N(C)C)C(O)C(C)O1 (centres undefined) | 3.21 µM
15 | CC(Oc1ccc(Br)cc1)c1nc2c3ccccc3nc(=S)n2[nH]1 (centres undefined) | 4.33 µM
16 | O=[N+]([O-])c1ccc(O)c2ncccc12 | 6.36 µM
17 | O=c1cc(N2CCN(c3cccc(Cl)c3)CC2)[nH]c(=O)n1C1CCCCC1 | > 39.8 µM (inactive)
18 | CC[C@@]1(O)C(=O)OCc2c1cc1n(c2=O)Cc2cc3c(N)cccc3nc2-1 | 1.99 µM
19 | Clc1cc2cccnc2c2ncccc12 | 12.1 µM (inactive)
20 | S=C(NN=Cc1ccccn1)Nc1ccccn1 | 4.44 µM
21 | O=[N+]([O-])c1cc(C(F)(F)F)cc([N+](=O)[O-])c1NCCNC(=S)Nc1ccc(Cl)c(Cl)c1 | 11.5 µM (inactive)
22 | O=C(C1CCC(CNS(=O)(=O)c2cccc3nsnc23)CC1)N1CC=C(c2ccccc2)CC1 (centres undefined) | 6.86 µM
23 | Cc1noc(C)c1S(=O)(=O)Nc1ccc(C(=O)N2CCN(c3ccc(Cl)cc3)CC2)cc1 | 7.09 µM

Row | SMILES | IC50
24 | COc1ccc(CNC(=O)c2c(C)oc3c2C(=O)c2ccccc2C3=O)cc1 | 1.18 µM
25 | Cc1ccc(S(=O)(=O)N(CC(=O)Nc2ccccc2C(=O)O)c2cccc(Cl)c2C)cc1 | 18.8 µM (inactive)
26 | CCN(CC)S(=O)(=O)c1ccc(NC(=O)Nc2cccc(C(F)(F)F)c2)cc1 | 7.08 µM
27 | N=C1SCC(=O)N1c1ncc(Cc2ccccc2Cl)s1 | 10.5 µM (inactive)
28 | Cc1nc2ccc(S(=O)(=O)Nc3cccc(-c4nc5cccnc5s4)c3)cc2s1 | 7.12 µM
29 | Cc1nc2ncnn2c(N2CCN(c3cccc(C(F)(F)F)c3)CC2)c1C | 6.46 µM
30 | CC(C(=O)N1CCN(c2ccc(Cl)cc2)CC1)c1ncc(C(F)(F)F)cc1Cl (centres undefined) | 7.28 µM
31 | Cc1c(Cl)ccc2sc(N3CCN(C(=O)C4=COCCO4)CC3)nc12 | 7 µM
32 | CC(=O)c1c(O)cc(O)c(C(C)=O)c1O | 4.56 µM
33 | NC(=O)c1nn(-c2ccccc2)nc1NC(=O)CSc1nnnn1-c1ccc(Cl)cc1 | > 39.8 µM (inactive)
34 | Cc1cnc(NC(=O)C2CC(=O)N(c3cccc(Cl)c3)C2)s1 (centres undefined) | 1.05 µM
35 | O=C(CSc1nnnn1-c1ccc(O)cc1)Nc1ccc(N2CCOCC2)c(Cl)c1 | 4.47 µM
36 | Cc1sc2ncnc(NCC(O)c3ccccc3)c2c1C (centres undefined) | 4.74 µM
37 | CNC(=S)/N=C/NOCc1ccc(Cl)cc1Cl | 5.03 µM
38 | OC[C@@H]1CN(Cc2ccc(-c3ccccc3)cc2)C[C@H](n2cnc3c(Nc4ccccc4)ncnc32)O1 | 5 µM
39 | NS(=O)(=O)c1ccc(CCNc2nn3c(-c4cccc(OC(F)(F)F)c4)cnc3s2)cc1 | 4.66 µM
40 | OC[C@@H]1CN(Cc2ccc(-c3ccccc3)cc2)C[C@H](n2cnc3c(NCc4ccncc4)ncnc32)O1 | 4.44 µM
41 | CCCCCCCCCCCCN1[C@@H](CC(=O)O)c2cc(C(F)(F)F)ccc2S1(=O)=O | 8.1 µM
42 | COc1ccc(NC(=O)c2sc(=O)n(Cc3cccc(C(F)(F)F)c3)c2C)cc1OC | 35.6 µM (inactive)
43 | Cc1ccc(S(=O)(=O)N2[C@@H](c3ccc(Br)cc3)C(C(=O)O)=CC[C@H]2c2ccc(Cl)c(Cl)c2)cc1 | 7.28 µM
44 | CCNc1nc2c(c(=O)n(C)c(=O)n2C)n1Cc1ccc(Cl)cc1 | 6.02 µM
45 | CCOc1ccc(-c2nc(CSCC(=O)N3CCN(c4cccc(OC)c4)CC3)c(C)o2)cc1 | 3.02 µM
46 | Cc1nn(Cc2cccc(F)c2)c(C)c1NC(=O)c1ccc(COc2ccccc2Cl)cc1 | 11.7 µM (inactive)

Row | SMILES | IC50
47 | Cc1cccc(NS(=O)(=O)c2ccc(-c3cnc(C4CC4)o3)cc2)c1C | 5.28 µM
48 | Cc1cccc(Cc2cnc(N3C(=N)SC(C)C3=O)s2)c1 (centres undefined) | 4.96 µM
49 | CCc1cccc2sc(N3CCN(C(=O)c4ccc([N+](=O)[O-])o4)CC3)nc12 | > 13.3 µM (inactive)
50 | c1ccc(C(Cc2nc(-c3ccncc3)no2)c2ccccc2)cc1 | 4.37 µM
51 | CC(C)(C)C(=O)Nc1cc2nn(-c3ccccc3)nc2cc1Cl | 0.00479 µM
52 | O=C(Nc1nnc(-c2cccs2)o1)c1cc(-c2ccccc2)nc2ccccc12 | 3.45 µM
53 | O=c1c(Cl)c(N2CCN(c3ccc(F)cc3)CC2)cnn1C12CC3CC(CC(C3)C1)C2 | 38.2 µM (inactive)
54 | CN(C)c1ccc(/C=C/c2cc[n+](C)c3ccccc23)cc1 | 6.66 µM
55 | O=C1C(=O)c2cccnc2-c2ncccc21 | 13.1 µM (inactive)
56 | O=C(O)CC1(CC(=O)Nc2cc(C(F)(F)F)cc(C(F)(F)F)c2)CCCCC1 | 14.1 µM (inactive)
57 | O=C(CSc1nnnn1-c1ccccc1)Nc1nsc(-c2ccc(Cl)cc2)n1 | 0.833 µM
58 | O=C(Nc1ccc(Cn2cccn2)cc1)c1ccc(COc2ccccc2Br)cc1 | > 39.8 µM (inactive)
59 | O=C(Nc1cccc(NC(=O)c2c(F)cccc2F)n1)c1c(F)cccc1F | > 39.8 µM (inactive)
60 | Cc1ccc(NC(=O)CNC(=O)c2cccc(C)c2)nc1 | 26 µM (inactive)
61 | CC(C)(C)C(=O)Nc1ccc(Sc2ccc([N+](=O)[O-])cc2)cc1 | 4.6 µM
62 | CN(CC(=O)Nc1ccccc1Cl)C(=O)c1cccc(S(=O)(=O)N2CCN(c3ccc(F)cc3)CC2)c1 | 4.59 µM
63 | CCCCCCCCCCCCN1[C@@H](CC(=O)O)c2cc(F)ccc2S1(=O)=O | 8.51 µM
64 | CCN(c1ccccc1)S(=O)(=O)c1ccc(C(=O)Nc2nnc(CSC)o2)cc1 | 12.7 µM (inactive)
65 | COc1cnc(-c2ccccn2)nc1Sc1ccccc1Cl | 4.92 µM
66 | O=C(Nc1cccc(OC(F)(F)F)c1)C1Cc2c(-c3ccc4c(c3)OCO4)ccnc2O1 (centres undefined) | 14.4 µM (inactive)
67 | O=C(NCc1cccnc1)/C(=C\c1ccc(-c2ccc(Cl)c(Cl)c2)o1)S(=O)(=O)c1ccccc1 | 7.96 µM
68 | Cc1cccc(/C=N/Nc2cc(N3CCOCC3)nc(N3CCOCC3)n2)c1 | 5.91 µM
69 | CCc1nnc(NC(=O)c2ccc(S(=O)(=O)N3CCCc4ccccc43)cc2)o1 | 6.8 µM
